Results: patent US20090274645A1, “GALL MIDGE PHEROMONE MIXTURE” (priority 2006, published 2009)
“Also recorded” adds a separate entry of the source. Like-named read-outs stand apart in the source and are kept apart here. Marks after values point to notes of the source that are not given here.

What was measured:
[1] = system: male Hessian flies (antennal responses); settings: Hillbur et al unpublished, cited from earlier work; for elicit antennal responses in male Hessian flies: GC-EAD; for known to elicit antennal responses (mark in Table 2): earlier GC-EAD
[2] = system: male Hessian fly antennae; assay: GC-EAD recordings of male antennal responses; design: species or system Mayetiola destructor; settings: for antennal responses to compounds in female gland extract: GC-EAD of female Hessian fly extract (20 female equivalents); for antennal responses in males to synthetic compounds: GC-EAD, whole males mounted
From the text: Coupled gas chromatographic-electroantennographic detection (GC-EAD, Arn et al 1975) was used to analyse female gland extracts. GC-EAD is an efficient tool to determine which compounds in an extract that the male antennae can perceive, by use of the highly specific olfactory receptor neurons. In a CC-EAD set-up (FIG. 3), the effluent of the GC column is split between the flame ionisation detector (FID) of the CC and the antennal detector (EAD). The GC separates the compounds in the extract over time and the compounds are detected by the FID. Simultaneously, the eluting compounds also pass the male antennae via a constant charcoal-filtered and humidified air stream. The male antennae are connected to two electrodes and, if the antennae perceive a compound, neural signals are generated and these signals are recorded as an electroantennogram (EAG). Since the olfactory receptors on the antennae are highly specific, they will more or less exclusively respond to the pheromone compounds in the extract. In addition to pheromone extracts, GC-EAD can be used to analyse all sorts of compound blends, e.g. host volatile collections and synthetic pheromone compounds. Irrespective of what kind of substances that are analysed, simultaneous recordings from the FID and the EAD give information on which compounds in the blend that are interesting for chemical identification and/or behavioural testing.
In addition to gland extracts, GC-EAD was used to analyse seven synthetic compounds (Table 2).
A Hewlett-Packard 6890 GC (Palo Alto, Calif., USA) with flame ionization detection and an Innowax column (30 m×0.25 mm ID, H-P) was used for the GC-EAD recordings. The column was programmed from 80° C./2 min to 220° C. at 10° C./min. Since male Hessian fly antennae are very sensitive to desiccation whole male bodies instead of excised antennae were mounted in an antenna holder (JoAC, Lund, Sweden) (FIG. 4). The antennal holder is made of Plexiglas with two wells connected to an amplifier by gold wire electrodes and males were mounted in the antennal holder as described by Hillbur et al (2001). The antennae were exposed to a charcoal-filtered and humidified air stream at a rate of ca 0.3 m/s through a glass tube (8 mm diameter). The signals from the antennae were amplified (JoAC) before they were recorded and analysed with ElectroAntennoGraphy software (Syntech, Hilversum, The Netherlands).

male Hessian flies [3] = assay: Y-tube olfactometer two-choice bioassays; type: in vivo, Mayetiola destructor
From the text: The attractiveness of different synthetic pheromone blends and female gland extracts were studied in a mobile glass Y-tube olfactometer, (FIG. 5a). The arms of the Y-tube were 14 cm long, the stem 12.5 cm and the inner diameter was 2.2 cm. Charcoal-filtered and humidified air was pumped (Micro pump NMP 30 KNDC, 12 V, KNF Neuberger, Germany) through Teflon tubes and entered each arm via a custom made 9.5 cm long glass tube, (Humi Glas, Södra Sandby, Sweden) (FIG. 5b). […] In the centre of the glass tube was a glass rod (ca 1 cm long; 0.5 cm diameter) containing a centred small hole. During experiments, the stimulus was applied on a small piece of filter paper (1.5×0.5 cm) attached to a ca 1.5 cm long steel wire. The steel wire was placed in the hole of the glass rod to position the stimulus in the centre of the tube. […]
Six different two-choice bioassays were performed to evaluate differences in attractiveness of the main pheromone component (abbreviated: 1), 2S-E10-13:OAc, a three-component blend (abbreviated: 3) consisting of 2S-E10-13:OAc, 2S-E10-13:OH and 2S-13:OAc, and two different four-component blends, both consisting of the compounds included in the three-component blend but with either 2S-E8-E10-13:OAc (abbreviated: 4E) or 2S-Z8-E10-13:OAc (abbreviated: 4Z) added. […] Data from the […] bioassays were analysed by chi-square tests.

male Hessian flies [4] = settings: wind tunnel, Harris and Foster (1991); cited from earlier work
male Hessian flies [5] = settings: field study, main compound alone, cited from earlier work

## CCCCCCCCCCC[C@H](C)OC(C)=O [2S-13:OAc, (2S)-tridecan-2-yl acetate]
[1]
  elicit antennal responses in male Hessian flies: elicit antennal responses
  known to elicit antennal responses (mark in Table 2): (2S-13:OAc) *
[2]
  antennal responses to compounds in female gland extract: antennal responses
  antennal responses in males to synthetic compounds: elicited antennal responses; also recorded: responded

## CC/C=C/C=C/CCCCC[C@H](C)OC(C)=O [2S-E8-E10-13:OAc, (2S,8E,10E)-8,10-tridecadien-2-yl acetate]
[2]
  antennal responses in males to synthetic compounds: elicited antennal responses; also recorded: males respond; also recorded: responded

## CC/C=C/CCCCCCC[C@H](C)OC(C)=O [2S-E10-13:OAc, (2S,10E)-10-tridecen-2-yl acetate]
[1]
  elicit antennal responses in male Hessian flies: elicit antennal responses
  known to elicit antennal responses (mark in Table 2): (2S-E10-13:OAc) *
[2]
  antennal responses to compounds in female gland extract: antennal responses
  antennal responses in males to synthetic compounds: elicited antennal responses; also recorded: responded
Male Hessian flies [3]; Y-tube, main component alone versus blank
  responding males attracted when compared to blank: over 90%
Male Hessian flies [3]; blank-1 bioassay, 10 ng, p<0.001
  attractiveness to males versus blank: significantly more attracted
Male Hessian flies [4]
  males that contacted the odour source: 56%
Male Hessian flies [5]
  catch of male Hessian flies in the field: did not catch any male Hessian flies
Male Hessian flies [5]; listed as main component
  catch of male Hessian flies in the field: did not catch any males

## CC/C=C/CCCCCCC[C@H](C)O [2S-E10-13:OH, (2S,10E)-10-tridecen-2-ol]
[1]
  elicit antennal responses in male Hessian flies: elicit antennal responses
  known to elicit antennal responses (mark in Table 2): (2S-E10-13:OH) *
[2]
  antennal responses to compounds in female gland extract: antennal responses
  antennal responses in males to synthetic compounds: responded
[2]; listed as 2S-E0-13:OH
  antennal responses in males to synthetic compounds: elicited antennal responses

## CCCC/C=C/CCCCCCC[C@H](C)OC(C)=O [2S-E10-15:OAc, (2S,10E)-10-pentadecen-2-yl acetate]
[2]
  antennal responses in males to synthetic compounds: did not elicit antennal responses; also recorded: No responses were recorded

## CC/C=C/CCCCCCCCC[C@H](C)OC(C)=O [2S-E12-15:OAc, (2S,12E)-12-pentadecen-2-yl acetate]
[2]
  antennal responses in males to synthetic compounds: did not elicit antennal responses; also recorded: No responses were recorded

## CC/C=C/C=C\CCCCC[C@H](C)OC(C)=O [2S-Z8-E10-13:OAc, (2S,8Z,10E)-8,10-tridecadien-2-yl acetate]
[2]
  antennal responses in males to synthetic compounds: elicited antennal responses; also recorded: males respond; also recorded: responded

## CC/C=C\CCCCCCC[C@H](C)OC(C)=O [2S-Z10-13:OAc]
[2]
  antennal responses to compounds in female gland extract: antennal responses
  antennal responses in males to synthetic compounds: a response was recorded
[2]; listed as 23-Z10-13:OAc
  antennal responses to compounds in female gland extract: respond
